{
  "source": "patent US8722052B2",
  "about": "“Vaccinia virus protein A46 peptide and use thereof” (priority 2008, dated 2014)",
  "key": {"[1]": {"target": "T1, TLR9 (Mus musculus, UniProt Q9EQU3)", "T1 construct": "using the murine macrophage cell line RAW264.7; endogenous in cells; host or cells: RAW264.7", "T1 sequence (Q9EQU3 26-1032)": "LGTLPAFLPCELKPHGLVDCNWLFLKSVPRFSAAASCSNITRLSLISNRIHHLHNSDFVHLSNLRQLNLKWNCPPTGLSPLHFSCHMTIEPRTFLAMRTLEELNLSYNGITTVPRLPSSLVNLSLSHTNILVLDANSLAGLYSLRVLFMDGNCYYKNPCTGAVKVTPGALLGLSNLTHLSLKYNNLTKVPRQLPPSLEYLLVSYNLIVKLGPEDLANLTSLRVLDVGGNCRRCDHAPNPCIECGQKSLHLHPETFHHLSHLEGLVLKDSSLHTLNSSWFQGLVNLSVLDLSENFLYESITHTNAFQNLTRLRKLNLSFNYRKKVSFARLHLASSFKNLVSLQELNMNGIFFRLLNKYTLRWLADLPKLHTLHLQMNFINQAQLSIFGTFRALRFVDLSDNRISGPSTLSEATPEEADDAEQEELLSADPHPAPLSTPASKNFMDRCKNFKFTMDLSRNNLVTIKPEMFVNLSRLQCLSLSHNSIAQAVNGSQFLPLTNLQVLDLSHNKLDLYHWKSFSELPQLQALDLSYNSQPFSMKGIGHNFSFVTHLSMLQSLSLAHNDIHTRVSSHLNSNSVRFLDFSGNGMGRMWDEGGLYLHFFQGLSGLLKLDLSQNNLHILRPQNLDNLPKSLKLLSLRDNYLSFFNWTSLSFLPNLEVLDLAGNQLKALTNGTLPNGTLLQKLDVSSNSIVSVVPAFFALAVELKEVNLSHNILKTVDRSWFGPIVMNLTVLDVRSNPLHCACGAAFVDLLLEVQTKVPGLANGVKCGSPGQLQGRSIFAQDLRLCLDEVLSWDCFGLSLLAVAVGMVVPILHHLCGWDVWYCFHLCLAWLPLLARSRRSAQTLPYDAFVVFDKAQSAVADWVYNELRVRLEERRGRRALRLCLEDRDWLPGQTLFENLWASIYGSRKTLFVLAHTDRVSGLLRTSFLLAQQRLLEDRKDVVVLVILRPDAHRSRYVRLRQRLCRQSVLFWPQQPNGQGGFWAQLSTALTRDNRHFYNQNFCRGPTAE", "assay": "CpG-induced TNFα in RAW264.7 cells, ELISA", "assay_type": "cell-based, murine", "settings": "peptide 5 or 20 μM 1 h before CpG, supernatant 24 h", "procedure": "FIGS. 2A and B are bar charts showing the effect of peptides derived from A46 on CpG-induced TNFα in murine RAW264.7 cells. A46 peptides were added to the cells at a concentration of 5 or 20 μM 1 hour before stimulating with […] CpG. Supernatants were collected 24 hours after stimulation and assayed for TNFα by ELISA. No peptides were added into the control wells (black bars). (A) peptides A461-A467 (SEQ ID NO. 17 to 23). (B) peptides A468-A4614 (SEQ ID NO. 24 to 30) (excluding A4612 SEQ ID NO. 28). Data is representative of at least two experiments each performed in triplicate and is expressed as mean±s.d;\n(§1) Cytokine and chemokine production from cells or mouse serum was measured by ELISA using Duoset kits from R&D systems, according to the manufacturer's instructions.\nThese peptides were initially screened for effects on TLR-induced gene induction in vitro using the murine macrophage cell line RAW264.7. Unmethylated CpG dinucleotides of bacterial DNA sequences are detected by TLR9, which leads to production of pro-inflammatory cytokines and chemokines, including TNFα via a MyD88-dependent pathway (Latz et al, 2004). […] The effect of the peptides on two TLR9-induced cytokines, namely TNFα and MIP-2, was measured by ELISA. TNFα is NFκB-dependent, and MIP-2 as well as NFκB also requires IRFs for transcriptional activation (De Filippo et al, 2008). […]"}, "[2]": {"test_system": "TLR4", "sequence (O00206 24-839)": "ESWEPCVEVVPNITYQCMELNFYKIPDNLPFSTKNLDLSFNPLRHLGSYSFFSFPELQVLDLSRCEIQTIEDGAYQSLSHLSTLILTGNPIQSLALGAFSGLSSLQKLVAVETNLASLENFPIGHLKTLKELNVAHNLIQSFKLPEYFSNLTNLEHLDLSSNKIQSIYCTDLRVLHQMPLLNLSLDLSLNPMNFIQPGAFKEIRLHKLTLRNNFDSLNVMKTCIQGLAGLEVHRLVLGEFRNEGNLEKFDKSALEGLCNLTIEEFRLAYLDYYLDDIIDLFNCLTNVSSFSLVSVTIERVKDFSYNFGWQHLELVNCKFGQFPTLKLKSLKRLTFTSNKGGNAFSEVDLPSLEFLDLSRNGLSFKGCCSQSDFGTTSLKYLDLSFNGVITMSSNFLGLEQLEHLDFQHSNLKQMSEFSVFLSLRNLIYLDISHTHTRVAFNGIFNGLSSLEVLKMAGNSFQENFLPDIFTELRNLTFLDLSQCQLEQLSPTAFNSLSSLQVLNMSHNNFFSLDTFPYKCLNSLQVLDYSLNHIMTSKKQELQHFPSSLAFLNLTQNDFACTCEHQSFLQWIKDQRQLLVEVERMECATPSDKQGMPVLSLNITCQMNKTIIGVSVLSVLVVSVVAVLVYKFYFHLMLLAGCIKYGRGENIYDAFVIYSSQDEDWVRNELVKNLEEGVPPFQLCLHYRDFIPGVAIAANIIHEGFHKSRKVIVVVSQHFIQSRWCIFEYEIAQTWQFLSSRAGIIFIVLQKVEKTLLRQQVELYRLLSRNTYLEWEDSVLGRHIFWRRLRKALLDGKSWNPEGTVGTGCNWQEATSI", "sequence (Q9Y6Y9 17-160 partner limits assumed)": "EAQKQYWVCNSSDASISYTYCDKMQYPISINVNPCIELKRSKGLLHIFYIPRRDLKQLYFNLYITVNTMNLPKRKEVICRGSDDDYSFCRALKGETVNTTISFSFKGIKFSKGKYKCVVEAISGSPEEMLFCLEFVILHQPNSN", "assay_type": "cell-based, human", "settings": "THP-1; for inhibition of LPS-induced TNFα production: 6 h"}, "[3]": {"target": "T2, TLR3 (Mus musculus, UniProt Q99MB1)", "T2 construct": "endogenous in cells; host or cells: RAW264.7", "T2 sequence (Q99MB1 26-905)": "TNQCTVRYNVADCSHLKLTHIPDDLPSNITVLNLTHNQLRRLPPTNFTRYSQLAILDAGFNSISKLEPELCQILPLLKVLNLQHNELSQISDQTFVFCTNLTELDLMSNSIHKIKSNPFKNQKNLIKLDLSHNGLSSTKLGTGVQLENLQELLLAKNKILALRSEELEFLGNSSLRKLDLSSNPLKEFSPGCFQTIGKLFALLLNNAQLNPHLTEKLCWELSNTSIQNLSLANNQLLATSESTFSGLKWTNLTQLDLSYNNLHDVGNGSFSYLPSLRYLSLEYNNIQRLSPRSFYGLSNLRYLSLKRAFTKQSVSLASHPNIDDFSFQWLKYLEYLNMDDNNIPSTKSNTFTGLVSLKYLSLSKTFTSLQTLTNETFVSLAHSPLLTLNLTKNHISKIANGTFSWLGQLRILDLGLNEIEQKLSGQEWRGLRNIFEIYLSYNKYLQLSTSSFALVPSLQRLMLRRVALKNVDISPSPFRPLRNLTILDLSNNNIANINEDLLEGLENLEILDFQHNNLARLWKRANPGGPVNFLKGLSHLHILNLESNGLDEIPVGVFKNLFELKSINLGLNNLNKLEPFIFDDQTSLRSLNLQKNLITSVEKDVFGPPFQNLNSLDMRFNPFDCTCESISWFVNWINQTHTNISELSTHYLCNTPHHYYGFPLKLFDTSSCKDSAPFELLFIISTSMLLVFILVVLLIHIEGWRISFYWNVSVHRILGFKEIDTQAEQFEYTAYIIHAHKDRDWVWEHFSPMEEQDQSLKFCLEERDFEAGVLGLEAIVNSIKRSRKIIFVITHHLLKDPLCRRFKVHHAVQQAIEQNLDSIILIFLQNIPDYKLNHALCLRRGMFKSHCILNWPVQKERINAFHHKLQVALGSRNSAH", "assay": "poly(I:C)-induced TNFα in RAW264.7 cells, ELISA", "assay_type": "cell-based, murine", "settings": "peptide 5, 20 or 50 μM, 25 μg/ml Poly(I:C), 24 h", "procedure": "FIGS. 10A and B are bar charts showing the effect of A464 on poly(I:C)-induced TNFα in murine RAW264.7 cells. Cells were seeded in 96 well plates (1.5×10^5 cells/nil) 24 hours before treatment. […] Supernatants were collected 24 hours after stimulation and assayed for TNFα by ELISA (A) and cells were assayed for viability by the MTT assay (B). No peptides were added to the control wells (black bars). Data is representative of at least three experiments each performed in triplicate and is expressed as mean±s.d;\nas §1\nIn order to determine whether A464 (SEQ ID No. 20) was specific for TLR4, other TLR pathways were next assayed for sensitivity to A464 (SEQ ID No. 20). A scrambled version of A464 (SEQ ID No. 20) peptide was designed to use as a further control peptide, and this had the sequence: […] (ConA464, SEQ ID No. 32). The A464R (SEQ ID No. 20) and ConA464 (SEQ ID No. 32) peptides were assayed for inhibition of TLR2 signalling in THP-1 cells. Pam3CysK4 (S-(2,3-bis(palmitoyloxy)-(2-RS)-propyl)-N-palmitoyl-(R)-Cys-(S)-Ser-(S)-Lys(4)) is a synthetic tripalmitoylated lipopeptide that is recognized by a TLR2/TLR1 heterodimer and leads to activation of NFκB through a Mal- and MyD88-dependent pathway. […]"}},
  "note": "Read-outs that look alike come from different tables or passages of the source.",
  "data": [
    {"sequence": "KYSFKLILAEYRRRRRRRRR [Peptide A464]", "values": [
      {"measurement": "inhibition of CpG-induced TNFα production", "setting": "[1]", "result": "little or no effect"},
      {"measurement": "inhibition of LPS-induced hTNFα production, peptide added after LPS", "setting": "[2]; 5 and 10 μM peptide added 1 hour after LPS stimulation", "result": "almost completely inhibited"},
      {"measurement": "inhibition of LPS-induced TNFα production", "setting": "[2]; peptide 5 or 10 μM 1 h before 10 ng/ml LPS", "result": "complete inhibition of TLR4 was achieved at 5 and 10 μM"},
      {"measurement": "inhibition of LPS-induced TNFα production", "setting": "[2]; peptide 20 or 40 μM 1 h before 100 ng/ml LPS", "result": "20 μM A464 (SEQ ID No. 20) inhibited TLR4-mediated TNFα production"},
      {"measurement": "inhibition of poly(I:C)-induced mTNFα production", "setting": "[3]", "result": "some inhibition of mTNFα production in response to stimulation with 25 mg/ml Poly(I:C) was seen but only at a concentration of 50 μM"}
    ]}
  ]
}
